{
  "source": "patent US11634688B2",
  "about": "“Methods and compositions for inducing hematopoietic cell differentiation” (FATE THERAPEUTICS, INC., priority 2015, dated 2023)",
  "key": {"hiPSCs": {"test_system": "hiPSCs", "assay": "generation of CD34+ HE from hiPSC monolayer differentiation, flow cytometry at about D10", "type": "cell-based, human", "experimental": "The above iHSC platform was further optimized for hematopoietic lineage cells differentiation. To initiate differentiation towards the hematopoietic lineage, hiPSCs were seeded as a monolayer on Day (D) 0 in the maintenance medium and allowed to adhere and expand for about 24 hours. At this point, the maintenance medium was removed and replaced with base medium without maintenance factors at D1. Hematopoietic differentiation was initiated at around D2 by switching the culture medium to iCD34-A (see FIG. 12). […] The monolayers were maintained until around D5-D6 at which point they were dissociated into single cells and seeded as a low density monolayer in iCD34-C medium until differentiation around D10. Low oxygen tension (2-10% O2) was maintained from the onset of hematopoietic differentiation around D2 up until around D10 of differentiation.\nDuring the culture process, the directed differentiation towards the hematopoietic lineage was monitored by the dissociation of the monolayers into single cells and analysis for the surface marker expression of CD34, and optionally, CD43, CD45, CXCR4 and CD73 (FIG. 15A). At around D8 of differentiation, the appearance of a cell population representing HE was observed by the cell surface expression signature CD34+. CD43−CXCR4−CD73− was also observed in the CD34+ cells. The CD34+ population was maintained until around D10 (FIG. 15A). At D10, which time point can be shortened to about D9 or extended until about D12, the cells were dissociated into single cells and the CD34+ HE population was sorted by FACS using a BD FACS Aria for further analysis and functional assessment. […]\nTo optimize the efficient generation of HE from hiPSCs after around 10 days of differentiation several parameters were examined. The optimal plating density of the monolayers at DO of differentiation was assessed by plating increasing amounts of hiPSCs from 7.5×10^4/well to 1.5×10^5/well on matrigel™-coated 6 well culture dishes and then analyzing the generation of the CD34+ HE population at about D10. […]\nThe effect of the concentration of BMP4 modulation during the initial stages of hematopoietic differentiation on the generation of HE was assessed by treating the cultures with increasing concentrations of BMP4 ranging from 0 ng/ml to 30 ng/ml from about D2 to about D6 of differentiation. The generation of HE at D10 was assessed by the detection of the CD34+ HE population.\nThe Wnt pathway activator CHIR99021 is responsible for the induction of the definitive hematopoetic program from hiPSCs. The effect of the modulation of CHIR during the induction phase of the hematopoietic differentiation protocol was assessed by treating the cultures with increasing concentrations of CHIR from about D3.75 to about D6. […]"}, "[1]": {"test_system": "umbilical cord blood CD34+ cells", "assay": "stromal-free NK cell differentiation on plate-bound DLL4, umbilical cord blood CD34+ cells", "conditions": "plate-bound DLL4 vs stromal-based and stromal-free control cultures; 10-15 days", "experimental": "Specific to NK cells, enriched umbilical cord blood CD34+ cells were plated in iNK-A serum-free differentiation media containing SCF, Flt3L, IL3, IL15 and IL7 in culture plates containing DLL4 protein or control protein. After 5 days the iNK-B medium was maintained to complete NK cell differentiation. After approximately 10-15 days of culture, the culture was assessed for the generation of NK cell progenitors and the absence of myeloid cells. CD56, CD7 and CD161 are the first cell surface markers to be expressed during NK cell development. CD11b and CD14 are cell surface markers expressed on myeloid cell subsets. FIG. 29 depicts stromal-free differentiation of umbilical cord blood CD34+ cells towards NK cells. […] Early NK lineage markers identify the presence of proNK cells as defined by CD56, CD7 and CD161 and the absence of myeloid markers CD11b and CD14."}, "[2]": {"test_system": "Day 10 CD34+ iHE sorted cells", "assay": "stromal-free NK cell differentiation on plate-bound DLL4, hiPSC-derived iHE", "type": "cell-based, human", "conditions": "plate bound DLL4 vs control protein; CD45+ gating"}, "[3]": {"conditions": "CHIR from about D3.75 to about D6"}},
  "data": [
    {"molecule": "Cc1c[nH]c(-c2cnc(NCCNc3ccc(C#N)cn3)nc2-c2ccc(Cl)cc2Cl)n1", "note": "[CHIR99021, reference compound]", "values": [
      {"measurement": "effect of increasing CHIR99021 concentration on percentage of HE subpopulation", "setting": "hiPSCs; [3]", "result": "decreases the percentage of the HE subpopulation"},
      {"measurement": "effect of increasing CHIR99021 concentration on total percentage of CD34+ cells", "setting": "hiPSCs; [3]", "result": "increases the total percentage of CD34+ cells"}
    ]},
    {"molecule": "DLL4: Notch activator, plate-bound DLL4 protein", "values": [
      {"measurement": "differentiation of CD56+CD7+CD161+ NK cell progenitors", "setting": "[1]", "result": "supports a more rapid and efficient differentiation of CD56+CD7+CD161+ NK cell progenitors"},
      {"measurement": "differentiation of NK cell progenitors and myeloid cells", "setting": "[2]", "result": "supports the differentiation of CD56+CD7+CD161+ NK cell progenitors but not CD11b+myeloid cells"}
    ]},
    {"molecule": "IGF1: insulin-like growth factor 1", "values": [
      {"measurement": "effect of addition of IGF1 and EPO on percentage of HE at around D10", "setting": "hiPSCs; IGF1 and EPO added together at Day 8", "result": "decreases the percentage of HE"}
    ]},
    {"molecule": "BMP4: bone morphogenetic protein, BMP pathway activator (protein, UniProt P12644 293-408, looked up) Bone morphogenetic protein 4: SPKHHSQRARKKNKNCRRHSLYVDFSDVGWNDWIVAPPGYQAFYCHGDCPFPLADHLNSTNHAIVQTLVNSVNSSIPKACCVPTELSAISMLYLDEYDKVVLKNYQEMVVEGCGCR", "values": [
      {"measurement": "optimal concentration of BMP4 for HE population at D10", "setting": "hiPSCs; BMP4 0 ng/ml to 30 ng/ml from about D2 to about D6, CD34+ HE at D10", "result": "about 3 ng/mL"}
    ]}
  ]
}
